Paper PMC11984388, “A brain-accessible peptide modulates stroke inflammatory response and neurotoxicity by targeting BDNF-receptor TrkB-T1 specific interactome” (Theranostics, 2025)
Residues, ends and D or L forms follow the SMILES beside them. *: point of attachment. Biotin = O=C1N[C@H]2[C@H](CS[C@H]2CCCCC(=O)*)N1

What was measured:
[1] = Peptide detection in brain cortex after photothrombotic ischemia; type: in vivo; conditions: 3 nmol/g i.v. 1 h after damage, male and female mice sacrificed 5 h post-stroke; Fluorescein Avidin D (Fig 5C)
Description: Vehicle (saline), Bio-TMyc or Bio-TT1Ct (3 nmol/g) were retro-orbitally injected in mice one hour after induction of photothrombotic damage or, alternatively, undamaged animals. In the first case, animals were sacrificed 5 h after damage induction while, the second group was sacrificed 30 min after peptide administration. The details of brain fixation and cryoprotection for peptide visualization and/or immunohistochemistry are provided in the Supplementary material. […]
Finally, the sa mple s were mounted in Prolong Diamond. The images were acquired using an inverted Zeiss LSM 710 laser confocal microscope (Jena, Germany) with a 40x or 63x Plan-Apochromatic oil immersion objective. Images corre spond to single se ctions and were normalized for eac h colour se para tely and process ed for presenta tion with ImageJ (NIH Image) and Fiji.
Peptide visualization and immunohistochemis tr y in brain cortex
For peptide visua liz ation in undamaged or damaged brains, animals were deeply anes thetized and intra cardially perfus ed with cold PBS and 4% paraformalde hyde in PBS. Brains were post-fixed in the sa m e fixative at 4°C for 24 h and cryoprote cted in 30% suc ros e for 48 h at 4°C. […]

[2] = Beam walking test after photothrombotic ischemia; type: in vivo, mice; conditions: male mice
pCREB = assay: Western blot in excitotoxicity; type: cell-based, rat; conditions: peptide 15 µM 30 min, NMDA 30-120 min; normalized to NSE; differences not statistically significant compared to TMyc; n = 5
Description: (§1) amounts were combined with streptavidin-agarose beads previously was hed with NP-40 lysis buffer and incubated at room temperature for 1.5 h with agitation. Sedimented beads were was hed 3 times with the NP-40 lysis buffer to remove poss ible non-spe cifica lly bounded proteins, and peptides and their interacting proteins were released by incubation at 50°C for 40 min in RI P A modifie d buffer (50 mM Tris HCl pH 8.0, 150 mM NaC l, 1% sodium deoxycholate , 1% NP-40) combined with protease and phospha tase inhibitors as before .
(§2) Prote omic analysis of Bio-sT T1Ct-inte racting proteins
(§3) Prote omic analys is was performed in Pros taR (1.34.6) software tool, using the protocol for protein-level analys is. Prote omic abundanc es from 4 independent experiments were log-transforme d and filtered follow ing quality parameters: proteins present in at least >50% of one of the conditions and identifie d by at least 2 unique peptides . After, data was normalized by LOESS (locally es tima te d sc atterplot smoothing, k=0.7), and POV (par tially obse rved values ) and ME C (miss ing in entire condition values ) imputations were made using, respec tive ly, KNN (k-neares t-neighbour k=10) and det.quantile (quantile imputation using quantile = 2,5).
(§4) Differential analys is was performed using limma (3.16). Multiple comparison p-values where calibrated using sl i m algorithm and the FDR (fals e disc overy rate) is indicated for eac h comparison. For PCA (principal component analys is ), filte red, normalized and imputed data was use d corre cted for batch ef fe ct using removeBatc hEffe ct {limma} function. […]
(§5) dry milk solution in Tris Buffere d Saline-Tween (TBS-T, 20 mM Tris HCl pH 7.5, 137 mM NaC l, 0.05% Tween-20) and incubated overnight at 4°C with prima ry antibodies . […] To conclude, immunore activity was detecte d using Clar ity Wes ter n ECL Blotting Substrate (BioRad) and band intensity was quantified by dens itome tric analys is (Photos hop, Adobe). […] Multiple independent experiments were car r ied out and quantitated as detailed in the figure legends . […]

TrkB-T1 = assay: Western blot in excitotoxicity; type: cell-based, rat; conditions: peptide 15 µM 30 min, NMDA 30-120 min; compared to TMyc
Description: as §1, §2, §3, §4, §5

MEF2D = assay: Western blot in excitotoxicity; type: cell-based, rat; conditions: peptide 15 µM 30 min, NMDA 30-120 min; normalized to NSE; differences not statistically significant compared to TMyc; n = 5
Description: as §1, §2, §3, §4, §5

Compound: CC[C@H](C)[C@H](NC(=O)[C@H](CC(C)C)NC(=O)[C@H](CCCCN)NC(=O)[C@H](CCC(N)=O)NC(=O)[C@H](CCC(=O)O)NC(=O)[C@H](CCC(=O)O)NC(=O)[C@H](C)NC(=O)[C@H](CCCNC(=N)N)NC(=O)[C@H](CCCNC(=N)N)NC(=O)[C@H](CCCNC(=N)N)NC(=O)[C@H](CCC(N)=O)NC(=O)[C@H](CCCNC(=N)N)NC(=O)[C@H](CCCNC(=N)N)NC(=O)[C@H](CCCCN)NC(=O)[C@H](CCCCN)NC(=O)[C@H](CCCNC(=N)N)NC(=O)CNC(=O)[C@H](Cc1ccc(O)cc1)NC(=O)CCCC[C@@H]1SC[C@@H]2NC(=O)N[C@@H]21)C(=O)N[C@@H](CO)C(=O)N[C@@H](CCC(=O)O)C(=O)N[C@@H](CCC(=O)O)C(=O)N[C@@H](CC(=O)O)C(=O)N[C@@H](CC(C)C)C(=O)N[C@@H](CC(C)C)C(=O)N[C@@H](CCCNC(=N)N)C(N)=O [Bio-TMyc, reference compound] (Biotin-YGRKKRRQRRRAEEQKLISEEDLLR-NH2)
- Time of peptide detection in brain cortex after administration [1]: at least 4 h

Compound: Ac-YGRKKRRQRRRPPFVLFHKIPLDG-NH2 [TT1Ct]
- Recovery in beam walking test ([2]; TT1Ct versus TMyc slips): 49%
- Number of slips ([2]; contralateral hind paw slips, beam walking 24 h after insult, 3 nmol/g i.v. 1 h after damage, mean ± SEM, n = 10-12): 5 ± 1
- Effect on pCREB levels (pCREB): partially preserved
- Effect on TrkB-T1 regulation (TrkB-T1): did not have significant effects
- Effect on MEF2D levels (MEF2D): partially preserved
